For one experiment, the system named is THP-1 cells. As to the kind of experiment: TNFα generation assay. In kind it is cell-based, human. In outline:
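Secreted TNFα in supernatant quantified by ELISA or AlphaLISA after 7 h culture on human IgG-coated wells (10 μg/ml coating). Cells were IFN-γ-differentiated THP-1 (10 ng/ml, 2 days), exposed to compound for 30 min at room temperature before plating.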

Experiment [1] concerns the target T1, glutathione S-transferase (GST)-fused full-length human Syk protein (Homo sapiens, UniProt P43405).
T1 construct: (GST)-fused full-length human Syk protein; GST (glutathione S-transferase); purchased Carna Biosciences
Put plainly: Syk enzyme assay. It is filed as biochemical. In outline: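 IC50 values come from a time-resolved FRET readout (615 and 665 nm) of substrate phosphorylation, measured after an EDTA stop and 1 h antibody binding. The kinase reaction ran 40 min at room temperature with 27 μM ATP and 0.4 μM biotin-peptide, following a 15 min compound preincubation with baculovirus-made GST-full-length human Syk.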

Setting [2] is: Homo sapiens, THP-1, THP-1 cells, Table 22, read-out: IC50 in TNFα generation assay.
[3] abbreviates: Syk enzyme assay, Test Example 1, read-out: IC50 of Syk-inhibitory activity.

Like-named read-outs stand apart in the source and are kept apart here. Bounds are passed on as bounds.

For the compound `C[C@H](N)[C@@H](C)Nc1nc(Nc2cncc(Cl)c2)c(C(N)=O)cc1F` [Example 006-216, 6-(((2R,3S)-3-aminobutan-2-yl)amino)-2-((5-chloropyridin-3-yl)amino)-5-fluoronicotinamide], the values for the IC50 (in the experiment on THP-1 cells (setting [2]); in experiment [1] (setting [3])) were 65 to 130 nM and 10 to 50 nM, respectively.

As to `NC(=O)c1cc(F)c(N[C@@H]2CCCC[C@@H]2N)nc1Nc1cncc(C2CC2)c1` (relative stereo) [Example 004-055], the results for the IC50 (with THP-1 cells (setting [2]); in experiment [1] (setting [3])) were 65 to 130 nM and < 10 nM, respectively.

For `NC(=O)c1cc(F)c(N[C@@H]2CCCC[C@@H]2N)nc1Nc1ccccc1` (relative stereo) [Example 004-129, 6-(cis-2-aminocyclohexylamino)-5-fluoro-2-(phenylamino)nicotinamide], the results for the IC50 (in the experiment on THP-1 cells (setting [2]); in experiment [1] (setting [3])) were 65 to 130 nM and < 10 nM, respectively.

As for `CCC[C@@H](Nc1nc(Nc2cncc(-c3ccc(OC)cc3)c2)c(C(N)=O)cc1F)[C@H](C)N` [Example 006-285, 6-(((2S,3R)-2-aminohexan-3-yl)amino)-5-fluoro-2-((5-(4-methoxyphenyl)pyridin-3-yl)amino)nicotinamide], the IC50 in the experiment with THP-1 cells (setting [2]) was 65 to 130 nM; in experiment [1] (setting [3]), < 10 nM.

For `CC[C@@H](Nc1nc(Nc2ccc3c(c2)c(C2CC2)nn3C)c(C(N)=O)cc1F)[C@H](C)N` [Example 006-547, 6-(((2S,3R)-2-aminopentan-3-yl)amino)-2-((3-cyclopropyl-1-methyl-1H-indazol-5-yl)amino)-5-fluoronicotinamide], the IC50 is 65 to 130 nM with THP-1 cells (setting [2]) and < 10 nM in experiment [1] (setting [3]).

Regarding `NC(=O)c1cc(F)c(N[C@@H]2CCCC[C@@H]2N)nc1Nc1cncc2c1cnn2-c1ccccc1` [Example 004-020], the IC50 in the experiment with THP-1 cells (setting [2]) was 130 to 200 nM; in experiment [1] (setting [3]), < 10 nM.

As to `NC(=O)c1cc(F)c(N[C@@H]2CCCC[C@@H]2N)nc1Nc1cncc(-n2cccn2)c1` [Example 006-168, 2-((5-(1H-pyrazol-1-yl)pyridin-3-yl)amino)-6-(((1R,2S)-2-aminocyclohexyl)amino)-5-fluoronicotinamide], the IC50 is < 65 nM with THP-1 cells (THP-1 cells, Table 22, read-out: IC50 in TNFα generation assay) and < 10 nM in experiment [1] (setting [3]).

Consider `CCn1nc(F)c2cc(Nc3nc(N[C@H](CC(C)C)[C@H](C)N)c(F)cc3C(N)=O)ccc21` [Example 006-512, 6-(((2S,3R)-2-amino-5-methylhexan-3-yl)amino)-2-((1-ethyl-3-fluoro-1H-indazol-5-yl)amino)-5-fluoronicotinamide], for which the figures for the IC50 (with THP-1 cells (setting [2]); in experiment [1] (setting [3])) were 65 to 130 nM and < 10 nM, respectively.

For `Cn1ccc2cc(Nc3nc(N[C@@H]4CCCC[C@@H]4N)c(F)cc3C(N)=O)cnc21` [Example 004-012], the IC50 in the experiment on THP-1 cells (setting [2]) was < 65 nM; in experiment [1] (setting [3]) it was < 10 nM.

Turning to `Cn1ncc2cc(Nc3nc(N[C@@H]4CCCC[C@@H]4N)c(F)cc3C(N)=O)cnc21` [Example 004-213], the figures for the IC50 (in the experiment with THP-1 cells (setting [2]); in experiment [1] (setting [3])) were 65 to 130 nM and 10 to 50 nM, respectively.

`NC(=O)c1cc(F)c(N[C@@H]2CCCC[C@@H]2N)nc1Nc1cncc(-c2ccccc2F)c1` (relative stereo) [Example 004-143, 6-(cis-2-aminocyclohexylamino)-5-fluoro-2-((5-(2-fluorophenyl)pyridin-3-yl)amino)-nicotinamide]: the IC50 in the experiment on THP-1 cells (setting [2]) was 65 to 130 nM; in experiment [1] (setting [3]) it was < 10 nM.

On to `CCCc1nn(CCOC)c2ccc(Nc3nc(N[C@@H]4CCCC[C@@H]4N)c(F)cc3C(N)=O)cc12` [Example 006-458, 6-(((1R,2S)-2-aminocyclohexyl)amino)-5-fluoro-2-((1-(2-methoxyethyl)-3-propyl-1H-indazol-5-yl)amino)nicotinamide], for which the figures for the IC50 (with THP-1 cells (setting [2]); in experiment [1] (setting [3])) were 130 to 200 nM and < 10 nM, respectively.

On to `Cn1c(F)cc2cc(Nc3nc(N[C@@H]4CCCC[C@@H]4N)c(F)cc3C(N)=O)ccc21` (relative stereo) [Example 004-117, 6-(cis-2-aminocyclohexylamino)-5-fluoro-2-((2-fluoro-1-methyl-1H-indol-5-yl)amino)-nicotinamide], for which the IC50 in the experiment on THP-1 cells (setting [2]) was 130 to 200 nM; in experiment [1] (setting [3]), < 10 nM.

`C[C@H](N)CNc1nc(Nc2cnc3ccccc3c2)c(C(N)=O)cc1F` [Example 006-092, (S)-6-((2-aminopropyl)amino)-5-fluoro-2-((quinolin-3-yl)amino)nicotinamide]: the results for the IC50 (in the experiment on THP-1 cells (setting [2]); in experiment [1] (setting [3])) were < 65 nM and < 10 nM, respectively.

In the case of `COCCOc1nccc2cc(Nc3nc(N[C@@H]4CCCC[C@@H]4N)c(F)cc3C(N)=O)ccc12` (relative stereo) [Example 004-168, 6-(cis-2-aminocyclohexylamino)-5-fluoro-2-((1-(2-methoxyethoxy)isoquinolin-6-yl)amino)-nicotinamide], the IC50 in the experiment on THP-1 cells (setting [2]) was 130 to 200 nM; in experiment [1] (setting [3]) it was < 10 nM.

Take `NC(=O)c1cc(F)c(N[C@@H]2CCCC[C@@H]2N)nc1Nc1ccc2c(c1)c(F)nn2C1CC1` [Example 006-475, 6-(((1R,2S)-2-aminocyclohexyl)amino)-2-((1-cyclopropyl-3-fluoro-1H-indazol-5-yl)amino)-5-fluoronicotinamide]: the IC50 with THP-1 cells (setting [2]) is 130 to 200 nM; in experiment [1] (setting [3]), < 10 nM.

Turning to `CCCOc1cc(Nc2nc(N[C@@H]3CCCC[C@@H]3N)c(F)cc2C(N)=O)ccn1` [Example 006-169, 6-(((1R,2S)-2-aminocyclohexyl)amino)-5-fluoro-2-((2-propoxypyridin-4-yl)amino)nicotinamide], the IC50 was < 65 nM in the experiment with THP-1 cells (setting [2]) and < 10 nM in experiment [1] (setting [3]).

Consider `CC(C)CC(Nc1nc(Nc2ccc3ncccc3c2)c(C(N)=O)cc1F)[C@H](C)N` (stereo partly drawn) [Example 006-159, 6-(((2S)-2-amino-5-methylhexan-3-yl)amino)-5-fluoro-2-(quinolin-6-ylamino)nicotinamide], for which the IC50 is 130 to 200 nM in the experiment on THP-1 cells (setting [2]) and < 10 nM in experiment [1] (setting [3]).

Regarding `CCn1nc(C)c2cc(Nc3nc(N[C@H](CC4CC4)[C@H](C)N)c(F)cc3C(N)=O)ccc21` [Example 006-443, 6-(((2R,3S)-3-amino-1-cyclopropylbutan-2-yl)amino)-2-((1-ethyl-3-methyl-1H-indazol-5-yl)amino)-5-fluoronicotinamide], the IC50 in the experiment on THP-1 cells (setting [2]) is 65 to 130 nM; in experiment [1] (setting [3]), < 10 nM.

With `NC(=O)c1cc(F)c(NC2CCCCC2N)nc1Nc1cncc(-c2ccc([N+](=O)[O-])cc2)c1` (stereo not shown) [Example 002-172], the IC50 in the experiment with THP-1 cells (setting [2]) lay in the range of 130 to 200 nM; in experiment [1] (setting [3]), 10 to 50 nM.

Consider `NC(=O)c1cc(F)c(NC2CCCCC2N)nc1Nc1cncc(-c2ccc3cnccc3c2)c1` (stereo not shown) [Example 002-190], for which the figures for the IC50 (in the experiment on THP-1 cells (setting [2]); in experiment [1] (setting [3])) were 130 to 200 nM and < 10 nM, respectively.

In the case of `NC(=O)c1cc(F)c(N[C@@H]2CCCC[C@@H]2N)nc1Nc1ccc2ncccc2c1` [Example 37-3, 6-((1R,2S)-2-aminocyclohexylamino)-5-fluoro-2-((quinolin-6-yl)amino)nicotinamide], the IC50 was < 65 nM with THP-1 cells (setting [2]) and < 10 nM in experiment [1] (setting [3]).

Regarding `CCC[C@@H](Nc1nc(Nc2cnc(OC)c(-n3nccn3)c2)c(C(N)=O)cc1F)[C@H](C)N` [Example 006-253, 6-(((2S,3R)-2-aminohexan-3-yl)amino)-5-fluoro-2-((6-methoxy-5-(2H-1,2,3-triazol-2-yl)pyridin-3-yl)amino)nicotinamide], the IC50 was 130 to 200 nM in the experiment with THP-1 cells (setting [2]) and 10 to 50 nM in experiment [1] (setting [3]).

For the compound `NC(=O)c1cc(F)c(N[C@@H]2CCCC[C@@H]2N)nc1Nc1cncc(-n2cccn2)c1` (relative stereo) [Example 006-129, 2-((5-(1H-pyrazol-1-yl)pyridin-3-yl)amino)-6-((cis-2-aminocyclohexyl)amino)-5-fluoronicotinamide], the IC50 is < 65 nM with THP-1 cells (setting [2]) and < 10 nM in experiment [1] (setting [3]).

Consider `COc1ccc(-c2cncc(Nc3nc(N[C@@H]4CCCC[C@@H]4N)c(F)cc3C(N)=O)c2)cc1` (relative stereo) [Example 004-114, 6-(cis-2-aminocyclohexylamino)-5-fluoro-2-((5-(4-methoxyphenyl)pyridin-3-yl)amino)-nicotinamide], for which the IC50 with THP-1 cells (setting [2]) is 65 to 130 nM; in experiment [1] (setting [3]), < 10 nM.

For the compound `CC(C)c1nn(C)c2ccc(Nc3nc(N[C@H](CC4CC4)[C@H](C)N)c(F)cc3C(N)=O)cc12` [Example 006-507, 6-(((2R,3S)-3-amino-1-cyclopropylbutan-2-yl)amino)-5-fluoro-2-((3-isopropyl-1-methyl-1H-indazol-5-yl)amino)nicotinamide], the IC50 in the experiment on THP-1 cells (setting [2]) was 130 to 200 nM; in experiment [1] (setting [3]), < 10 nM.

Take `COc1cc(Nc2nc(N[C@@H]3CCOC[C@@H]3N)c(F)cc2C(N)=O)ccn1` [Example 006-531, 6-(((3R,4R)-3-aminotrahydro-2H-pyran-4-yl)amino)-5-fluoro-2-((2-methoxypyridin-4-yl)amino)nicotinamide]: the IC50 is 65 to 130 nM in the experiment with THP-1 cells (setting [2]) and < 10 nM in experiment [1] (setting [3]).

Consider `NC(=O)c1cc(F)c(N[C@@H]2CCCC[C@@H]2N)nc1Nc1cnc2ncccc2c1` (relative stereo) [Example 10-2, 6-(cis-2-aminocyclohexylamino)-5-fluoro-2-((1,8-naphthyridin-3-yl)amino)nicotinamide], for which the IC50 was ≤ 200 nM in the experiment with THP-1 cells (Homo sapiens, THP-1, 7 h, IFN-γ-differentiated THP-1 cells on human IgG-coated plate, cultured 7 hours, read-out: TNFα generation inhibitory activity (IC50)) and ≤ 1000 nM in experiment [1] (read-out: Syk-inhibitory activity (IC50)).

In the case of `C[C@H](N)[C@H](Nc1nc(Nc2cncc(F)c2)c(C(N)=O)cc1F)C1CC1` [Example 006-372, 6-(((1R,2S)-2-amino-1-cyclopropylpropyl)amino)-5-fluoro-2-((5-fluoropyridin-3-yl)amino)nicotinamide], the IC50 in the experiment with THP-1 cells (setting [2]) was 65 to 130 nM; in experiment [1] (setting [3]), 10 to 50 nM.

These data come from patent publication US8895585B2, “Nicotinamide derivative or salt thereof” (FUJIFILM Corporation, priority 2010, dated 2014).
